The text below walks through data of patent US20260317356A1, “SMALL MOLECULE MODULATORS OF OGG1” (AZKARRA THERAPEUTICS, INC., priority 2023, published 2026).

As usually defined, the Kd is the constant that tells how readily two partners part at equilibrium. Low readings indicate a tighter complex, high ones a looser complex. As usually defined, the ΔTm is the shift of the melting midpoint relative to a reference.

The target of one test is hOGG1 (Homo sapiens, UniProt O15527). In words: Surface Plasma Resonance with hOGG1 to measure compound affinity (OGG1 SPR Kd). The conditions noted are these: Biacore T-200, immobilized his-tagged OGG1; pH 7.4; 2% DMSO; single-cycle kinetics. Details: Protein His-hOGG1 (12-323) was prepared. The class given is binding. As to the method:
Surface Plasma Resonance with hOGG1 to Measure Compound Affinity (OGG1 SPR Kd); All the SPR studies were performed on a Biacore T-200 instrument (Cytiva life sciences) using series S NTA sensor chip (cat #BR-1005-32, Cytiva life sciences). Recombinant his-tagged OGG1 (mol. wt. 36003; ChemPartner, Shanghai, China) was immobilized on NTA sensor chip via Ni^2+/NTA chelation using NTA reagent kit (Cytiva life sciences; cat #289950) as per manufacturer's recommended protocol. The running buffer during immobilization contained HEPES (20 mM, pH 7.4), 150 mM NaCl, 0.5 mM TCEP (tris(2-carboxyethyl)phosphine), and 0.005% Tween-20. NTA sensor chip (experimental cell) was first conditioned by injecting regeneration solution (350 mM EDTA, flow rate 30 μL/min, 2 injections 60 each). Additional wash with 50 mM NaOH was used whenever the chip was regenerated (flow rate 30 μL/min, 1 injection of 60 s). The sensor chip was then activated with 0.5 mM NiCl2 (flow rate 10 μL/min, 2 injection of 60 s, leading to a baseline increase of ~40 RU), and the excess Ni^2+ was removed using immobilization buffer containing 3 mM EDTA (flow rate 10 μL/min, 1 injection of 60 s). Finally, OGG1 (diluted to 6.2 μg/mL in running buffer) was injected on the activated sensor chip at a flow rate of 10 μL/min until immobilization level reached ~6000 RU. Any loosely bound protein was removed by passing the immobilization buffer overnight at 20 μL/min. At this point, the drift in baseline was ~0.01 RU/s and the final immobilization level was ~2500 RU. Reference cell was left untreated. SPR binding experiments were performed using binding buffer (20 mM HEPES (pH 7.4), 150 mM NaCl, 0.5 mM TCEP, 0.005% Tween-20, and 2% DMSO) at a flow rate of 30 μL/min. Single-cycle kinetics approach was used for binding analysis which consisted of sequential injections of increasing concentrations of test compound (a 3-fold serial dilution with 5 concentrations; highest 750 or 1500 nM; with final DMSO concentration at 2%) over the immobilized protein without regeneration step between each sample injection. Each injection was 45 seconds long (contact time), followed by a final dissociation of 600 sec. The Biacore T-200 Evaluation software 3.1 (GE Healthcare) was used to determine kinetic parameters from SPR data. All the reported sensograms were reference subtracted and corrected for refractive index contributions from solvent using 8-point solvent correction (1.4 to 2.8% DMSO in binding buffer). Data were fit to both steady state and 1:1 kinetic model to obtain Kon, Koff and binding affinity (Kd).

For a further test, the target named is T1, nLucOGG1 in HeLa cells (Homo sapiens, UniProt O15527).
T1 construct: thermal shift read by NanoGlo luminescence
In words: Cellular Thermal Shift Assay to measure compound affinity for nLucOGG1 in HeLa cells (CETSA DTm). The class given is cell-based. The settings on record: 10 μM compound, 37° C. 60 min, Tm vs DMSO control. As to the method:
Biological Example 2: Cellular Thermal Shift Assay to Measure Compound Affinity for ^nLucOGG1 in HeLa Cells (CETSA DTm)
Cell Culture and Transfection of Hela Cells with ^nLucOGG1: For all tests, Hela cells were maintained in growth medium, Dulbecco's Minimum Eagle Medium (Multicell: Cat #319-005-CL) supplemented with 10% heat-inactivated fetal bovine serum (Gibco: Cat #12484-028) at 37° C. and 5% CO2 in a humidified tissue culture incubator. Transient transfections were performed using the Lonza 4-D Nucleofector X unit according to the manufacturer's protocol (Lonza Cat #V4XC-1024). Briefly, for each transfection, 1.2×10^6 cells were centrifuged at 1000 RPM for 5 minutes at room temperature before being diluted in 100 μL SE solution containing 18% v/v supplement and 1.5 μg pNF1-N-empty or pNF1-N-OGG1a vector. The total volume was transferred to a 100 μL nucleofection cuvette prior to transfer to the apparatus where HeLa cell nucleofection protocol CN-114 was executed. Following nucleofection, 500 μL complete media was added to the cells in the cuvette before transferring to a 6-well dish containing 1.5 mL of complete media. Cells were left to incubate for 48 hours before performing all cellular thermal shift experiments.
Cellular Thermal Shift Assays for Target Engagement (CETSA): Forty-eight hours following nucleofection, cells were washed once with DPBS−/−(Multicell: Cat #311-425-CL) and lifted with 0.25% Trypsin-EDTA (Multicell: Cat #325-043-CL) prior to dilution in growth medium and centrifugation at 1000 RPM for 5 minutes at room temperature. The resulting cell pellet was then resuspended in growth medium, cells were counted and the volume adjusted to 500 k cells/mL (2×).
For delta Tm determination, OGG1 inhibitor compounds were dissolved in DMSO to a final working concentration of 20 mM. Working solutions were then diluted in complete media to 20 μM or 0.1% DMSO for the vehicle control (2×). 2×OGG1 inhibitor compound solutions or 0.1% DMSO control were then pre-dispensed into MicroAmp Optical 96-well PCR reaction plates (Applied Biosystems: Cat #4346906) at 50 μL/well. Next, 50 μL or 25 k cells/well from the 2× cell suspension was added to the pre-loaded PCR plates. All plates were prepared as duplicates, covered with adhesive plate sealers (Perkin Elmer: Cat #6050185) and left to incubate at 37° C. for 60 minutes. During incubation, sufficient NanoGlo luciferase assay reagents (Promega: Cat #N1120) were left to equilibrate to room temperature in the dark. Immediately before heating the plates, the NanoGlo substrate was mixed with the NanoGlo buffer at a 1:50 ratio. The thermal cycler (Veriti 96-Well Thermal Cycler, Thermo Fisher Scientific) was allowed to reach the designated temperature prior to placement of the PCR plate into the heating block. For Tm determination experiments, duplicate plates containing a fixed concentration of test compound (10 μM final) as well as vehicle control were prepared to perform a 12-point temperature gradient spanning 37-70° C. for 3 minutes. Therefore, two thermal cycler protocols were set up covering two 6-step temperature gradients ranging from 37-52° C. and 52-70° C. Plates were then allowed to cool at room temperature for 5 minutes after the heat treatment followed by transfer of 75 μL of the reaction into a 96-well white polystyrene microplate (Corning: Cat #CLS3903) and addition of 75 μL of the prepared NanoGlo mixture. Microplates were then left to shake in the dark for 5 minutes before total luminescence was measured on a SpectraMax IX3 plate reader. The luminescence value obtained at each temperature was normalized to the luminescence obtained at 37° C. and the ratio obtained was plotted against the temperature. A Boltzman Sigmoidal non-linear regression was applied to the resulting data to determine Tm values and the difference between the Tm value for a given OGG1 inhibitor relative to the DMSO vehicle control was the delta Tm.

Each structure is given as a SMILES string. Where only a bound is given, the exact number is not on record here.

Sequence of hOGG1 (O15527 12-323): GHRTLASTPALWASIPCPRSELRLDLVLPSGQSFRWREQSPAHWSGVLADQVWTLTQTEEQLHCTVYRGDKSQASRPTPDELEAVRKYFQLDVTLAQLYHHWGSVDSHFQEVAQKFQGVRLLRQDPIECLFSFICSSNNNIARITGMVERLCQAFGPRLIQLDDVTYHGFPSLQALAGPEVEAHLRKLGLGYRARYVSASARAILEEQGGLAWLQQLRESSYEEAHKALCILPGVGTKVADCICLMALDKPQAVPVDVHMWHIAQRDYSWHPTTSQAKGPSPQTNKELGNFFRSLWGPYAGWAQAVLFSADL
T1 sequence (O15527 whole entry): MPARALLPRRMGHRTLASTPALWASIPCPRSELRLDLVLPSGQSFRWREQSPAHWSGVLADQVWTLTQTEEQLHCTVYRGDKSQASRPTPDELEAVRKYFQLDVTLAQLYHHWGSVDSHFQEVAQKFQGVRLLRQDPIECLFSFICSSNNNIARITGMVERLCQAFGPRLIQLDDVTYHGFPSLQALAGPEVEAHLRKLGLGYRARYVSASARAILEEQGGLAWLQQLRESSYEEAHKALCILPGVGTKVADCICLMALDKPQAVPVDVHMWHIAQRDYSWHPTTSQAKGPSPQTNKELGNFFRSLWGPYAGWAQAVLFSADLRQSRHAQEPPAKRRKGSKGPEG

Consider `COc1cc(NC(=O)[C@]2(C)CC[C@@H](N3Cc4c(C)ccc(OC)c4NC3=O)CC2)ccc1C` [Example 12, (1r,4r)-N-(3-Methoxy-4-methylphenyl)-4-(8-methoxy-5-methyl-2-oxo-1,2-dihydroquinazolin-3(4H)-yl)-1-methylcyclohexanecarboxamide], for which the Kd on hOGG1 was greater than 1000 nM. Also, the ΔTm at 10 µM on nLucOGG1 in HeLa cells was no more than 6 °C.
